{
  "source": "patent US4661510A",
  "about": "“α-allenic-α-amino acids as enzyme inhibitors” (priority 1985, dated 1987)",
  "key": {"[1]": {"target": "T1, bacterial ornithine decarboxylase from E. Coli (Escherichia coli, UniProt P21169)", "T1 construct": "bacterial ornithine decarboxylase from E. Coli; host or cells: E. coli", "T1 sequence (P21169 whole entry)": "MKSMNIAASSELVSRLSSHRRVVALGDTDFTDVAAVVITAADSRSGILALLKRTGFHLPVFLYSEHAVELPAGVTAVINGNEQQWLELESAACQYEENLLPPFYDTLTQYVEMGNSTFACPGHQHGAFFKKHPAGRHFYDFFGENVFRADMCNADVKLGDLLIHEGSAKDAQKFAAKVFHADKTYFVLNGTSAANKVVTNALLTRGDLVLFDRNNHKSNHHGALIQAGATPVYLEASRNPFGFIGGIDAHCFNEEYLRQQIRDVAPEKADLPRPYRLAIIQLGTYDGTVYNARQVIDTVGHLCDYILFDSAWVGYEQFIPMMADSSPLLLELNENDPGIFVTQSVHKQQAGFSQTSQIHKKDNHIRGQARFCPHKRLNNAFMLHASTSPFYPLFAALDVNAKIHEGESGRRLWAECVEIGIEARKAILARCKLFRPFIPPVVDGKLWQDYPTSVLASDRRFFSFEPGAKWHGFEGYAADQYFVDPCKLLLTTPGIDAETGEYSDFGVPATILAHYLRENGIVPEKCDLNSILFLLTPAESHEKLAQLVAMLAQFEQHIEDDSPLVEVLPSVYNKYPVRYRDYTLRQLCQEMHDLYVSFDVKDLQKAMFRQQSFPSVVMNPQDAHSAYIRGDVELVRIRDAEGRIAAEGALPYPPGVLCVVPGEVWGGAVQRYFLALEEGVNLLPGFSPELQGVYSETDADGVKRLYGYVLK", "assay": "Inactivation of bacterial ornithine decarboxylase", "type": "biochemical", "details": "E. Coli enzyme"}, "[2]": {"target": "T2, mammalian ornithine decarboxylase from rat liver (Rattus norvegicus, UniProt P09057)", "T2 construct": "mammalian ornithine decarboxylase from rat liver; from tissue; host or cells: rat liver", "T2 sequence (P09057 1-461)": "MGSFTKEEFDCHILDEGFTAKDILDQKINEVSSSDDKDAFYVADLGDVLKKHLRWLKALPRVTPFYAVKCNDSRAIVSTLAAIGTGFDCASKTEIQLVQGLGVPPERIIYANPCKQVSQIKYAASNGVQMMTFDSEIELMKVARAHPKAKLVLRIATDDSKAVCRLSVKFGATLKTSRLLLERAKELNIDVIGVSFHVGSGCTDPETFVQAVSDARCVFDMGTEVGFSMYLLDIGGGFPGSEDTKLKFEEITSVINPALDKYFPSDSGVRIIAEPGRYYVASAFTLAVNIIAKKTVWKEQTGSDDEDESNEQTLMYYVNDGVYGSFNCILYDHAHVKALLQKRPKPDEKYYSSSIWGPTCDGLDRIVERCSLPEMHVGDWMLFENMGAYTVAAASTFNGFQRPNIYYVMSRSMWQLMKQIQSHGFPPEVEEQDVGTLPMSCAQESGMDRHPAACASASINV", "assay": "Inactivation of mammalian ornithine decarboxylase", "type": "biochemical", "details": "rat liver enzyme"}, "[3]": {"target": "T3, bacterial tyrosine decarboxylase from Streptococcus faecallis (Enterococcus faecalis, UniProt Q838D6)", "T3 construct": "purchased from Sigma Chemical Co. as crude extracts; purchased Sigma Chemical Co; host or cells: Streptococcus faecalis, crude extract", "T3 sequence (Q838D6 1-620)": "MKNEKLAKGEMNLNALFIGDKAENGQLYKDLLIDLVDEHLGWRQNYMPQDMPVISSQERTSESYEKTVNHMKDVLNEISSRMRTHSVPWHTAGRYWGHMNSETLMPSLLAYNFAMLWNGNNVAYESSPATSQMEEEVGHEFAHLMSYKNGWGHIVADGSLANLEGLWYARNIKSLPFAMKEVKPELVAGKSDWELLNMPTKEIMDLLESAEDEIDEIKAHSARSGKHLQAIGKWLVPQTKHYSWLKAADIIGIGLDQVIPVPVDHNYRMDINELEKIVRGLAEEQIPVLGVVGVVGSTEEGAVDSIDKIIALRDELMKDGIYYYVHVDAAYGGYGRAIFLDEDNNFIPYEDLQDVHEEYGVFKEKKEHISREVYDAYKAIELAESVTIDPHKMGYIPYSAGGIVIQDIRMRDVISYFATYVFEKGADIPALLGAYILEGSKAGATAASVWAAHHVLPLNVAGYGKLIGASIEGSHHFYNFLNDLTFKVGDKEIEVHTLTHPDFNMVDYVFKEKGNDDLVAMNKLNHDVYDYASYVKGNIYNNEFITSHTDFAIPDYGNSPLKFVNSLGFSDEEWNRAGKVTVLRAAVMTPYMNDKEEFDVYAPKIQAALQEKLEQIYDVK", "assay": "Time dependent inactivation of tyrosine decarboxylase", "type": "biochemical", "details": "Streptococcus faecallis enzyme", "text": "(§1) Mammalian DOPA decarboxylase was isolated and purified from porcine kidney by the procedure of Borri-Voltatorni et al [Eur. J. Biochem., 93, 181 (1979)] with modifications as introduced by Rudd and Thanassi [Biochemistry, 20, 7469 (1981)]. Bacterial L-phenylalanine and L-tyrosine decarboxylases ex Streptococcus faecallis were purchased from Sigma Chemical Co. as crude extracts and studied without further purification.\n(§2) The time dependent inactivation of bacterial aromatic amino acid decarboxylases with 200-1000 micromolar inhibitor, e.g. 2-amino-2-(4-hydroxybenzyl)-penta-3,4-dienoic acid or 2-amino-2-benzylpenta-3,4-dienoic acid, was monitored at pH 5.5 and 37° C. Residual activity of tyrosine decarboxylase ex Streptococcus faecallis was determined by measurement of p-tyramine production at pH 5.5 and 37° C. p-Tyramine was separated by HPLC and quantified by electrochemical oxidation at +0.7 volts."}, "Male Sim:(S.D.)fBR rats": {"system": "Male Sim:(S.D.)fBR rats", "assay": "In vivo potentiation of L-DOPA induced behaviors", "parameters": "species or system rat", "details": "for Mean Behavior Score at 60 min.: score scale 0-6, before 200 mg/kg L-DOPA i.p.", "experimental": "Male Sim:(S.D.)fBR rats weighing 180-335 g were used for these experiments. Groups of 5 rats were individually housed and received water, or various doses of either 2-amino-2-(3-hydroxybenzyl)penta-3,4-dienoic acid or 2-amino-2-(3,4-dihydroxybenzyl)penta-3,4-dienoic acid 30 l minutes before 200 mg/kg of L-DOPA, i.p. Beginning 15 minutes later, behavioral observations were made at 15 minutes intervals for 2 hours. Behavoir was scored as follows:\n3=Alert with intermittent sniffing"}, "[4]": {"assay": "Toxicity (acute, oral, mouse)", "type": "in vivo", "details": "in vivo; acute, oral, mouse", "experimental": "(§3) 2-amino-2-(3-hydroxybenzyl)penta-3,4-dienoic acid prepared in CMC vehicle was administered once daily to groups of 6 male mice at doses 0, 62.5, 125, 250, and 500 mg/kg. […] Therefore, the LD50 (acute, oral, mouse) for 2-amino-2-(3-hydroxybenzyl)penta-3,4-dienoic acid is greater than 500 mg/kg."}, "male mice": {"system": "male mice", "assay": "Toxicity (acute, oral, mouse)", "type": "in vivo", "details": "male mice; 62.5, 125, 250 and 500 mg/kg in CMC vehicle; observed for 21 days", "experimental": "as §3"}, "[5]": {"target": "T4, mammalian DOPA decarboxylase from porcine kidney (Sus scrofa, UniProt P80041)", "T4 construct": "isolated and purified from porcine kidney; from tissue; host or cells: porcine kidney", "T4 sequence (P80041 1-486)": "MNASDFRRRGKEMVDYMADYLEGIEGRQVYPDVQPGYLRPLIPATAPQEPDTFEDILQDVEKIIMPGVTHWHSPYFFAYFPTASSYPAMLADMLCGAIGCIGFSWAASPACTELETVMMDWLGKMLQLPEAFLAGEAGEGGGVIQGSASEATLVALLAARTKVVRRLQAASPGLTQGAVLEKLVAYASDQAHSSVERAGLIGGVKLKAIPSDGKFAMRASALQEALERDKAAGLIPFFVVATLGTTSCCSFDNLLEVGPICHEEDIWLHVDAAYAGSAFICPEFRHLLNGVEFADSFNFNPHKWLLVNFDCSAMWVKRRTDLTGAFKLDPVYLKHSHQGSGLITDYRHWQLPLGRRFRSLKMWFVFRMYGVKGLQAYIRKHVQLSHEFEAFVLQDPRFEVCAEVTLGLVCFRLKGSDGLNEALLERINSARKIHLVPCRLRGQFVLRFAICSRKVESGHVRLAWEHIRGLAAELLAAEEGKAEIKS", "assay": "Time dependent inactivation of DOPA decarboxylase", "type": "biochemical", "details": "porcine kidney enzyme", "text": "as §1\nTime dependent inactivation of mammalian DOPA decarboxylase was monitored by incubation of enzyme with 4 to 100 molar equivalent excess of 2-amino-2-(3,4-dihydroxybenzyl)penta-3,4-dienoic acid at pH 6.8 and 37° C. At appropriate time intervals, aliquots of the mixture were withdrawn, diluted 30-fold into excess L-DOPA (2 mM) and residual DOPA decarboxylase activity determined.\nDOPA decarboxylase activity was routinely measured by liquid chromatography and electrochemical detection of catecholamine products. DOPA decarboxylase (1-5 micrograms, 1-20 units) was incubated with L-DOPA (2000 micromolar, 150 microliters) and PLP (10 micromolar) in 0.1M phosphate at pH 6.8 and 37° C. After 1-10 minutes, the reaction was quenched with citric acid (2M, 25 microliters), diluted two-fold with distilled water and 10 microliter aliquots were analyzed by HPLC on a reverse phase Brownlee RP-18 column. Isocratic elution with pH 4.35 buffer [0.1M NaOAc ([…]), 0.1M citric acid (32% v/v) and methanol (15% v/v)] at a flow rate of 2.5 ml/min. afforded baseline resolution of dopamine (RT=2.8 min.) from L-DOPA (RT=1.9 min.).\nQuantification of dopamine was accomplished by preoxidation of the catechol to the ortho quinone at +0.25 volts in the first analytical electrochemical cell, followed by the selective reduction of ortho quinone in the second analytical cell set at -0.25 volts. This configuration for the ESA electrochemical detector allowed highly sensitive and selective detection of catecholamines (less than 10 picomoles/injection)."}, "[6]": {"target": "T5, phenylalanine decarboxylase from Streptococcus faecallis (Enterococcus faecalis, UniProt Q838D6)", "T5 construct": "L-phenylalanine substrate, phenylethylamine by GC", "T5 sequence (Q838D6 1-620)": "T3 sequence (Q838D6 1-620)", "assay": "Time dependent inactivation of phenylalanine decarboxylase", "type": "biochemical", "details": "Streptococcus faecallis enzyme", "text": "as §1, §2\nResidual activity of L-phenylalanine decarboxylase ex Streptococcus faecallis with L-phenylalanine (2 mM) as substrate was meaasured by gas chromatographic analysis of phenylethylamine production. Direct injection of enzymatic reaction mixture (1-5 microliters) onto a standard glass column packed with 10% Apiezon L on Chromosorb 80/100 deactivated with 2% KOH allowed separation of aromatic amine from the reaction mixture. FID detection quantified the rate of product formation."}, "dermatophytes": {"system": "dermatophytes", "assay": "In vitro anti-microbial activity (dermatophytes)", "type": "cell-based"}},
  "data": [
    {"smiles": "C=C=CC(N)(CCCN)C(=O)O", "note": "(stereo not drawn) [2-amino-2-(3-amino-n-propyl)penta-3,4-dienoic acid]", "values": [
      {"measurement": "irreversible inactivation of ornithine decarboxylase", "setting": "[1]", "value": "irreversible inactivators"},
      {"measurement": "irreversible inactivation of ornithine decarboxylase", "setting": "[2]", "value": "irreversible inactivators"}
    ]},
    {"smiles": "C=C=CC(N)(Cc1cccc(O)c1)C(=O)O", "note": "(stereo not drawn) [2-amino-2-(3-hydroxybenzyl)penta-3,4-dienoic acid]", "values": [
      {"measurement": "irreversible inactivation of tyrosine decarboxylase", "setting": "[3]", "value": "irreversible inactivators"},
      {"measurement": "potentiation of the behaviors induced by L-DOPA", "setting": "Male Sim:(S.D.)fBR rats; 3-30 mg/kg i.p. or 30-150 mg/kg s.c., 30 minutes before 200 mg/kg L-DOPA i.p.", "value": "potentiated the behaviors induced by L-DOPA"},
      {"measurement": "Mean Behavior Score at 60 min.", "setting": "Male Sim:(S.D.)fBR rats; 3-30 mg/kg i.p.", "value": 3.4},
      {"measurement": "potentiation of DOPA behaviors", "setting": "Male Sim:(S.D.)fBR rats; 3 to 30 mg/kg i.p. or 30 to 150 mg/kg s.c.", "value": "potentiate DOPA behaviors"},
      {"measurement": "Mean Behavior Score at 60 min.", "setting": "Male Sim:(S.D.)fBR rats; 30-150 mg/kg s.c.", "value": 3.4},
      {"measurement": "LD50 at 504 h", "setting": "[4]", "value": "> 500", "unit": "mg/kg"},
      {"measurement": "deaths", "setting": "male mice", "value": "no deaths"},
      {"measurement": "irreversible inactivation of DOPA decarboxylase", "setting": "[5]", "value": "irreversible inactivators"},
      {"measurement": "irreversible inactivation of phenylalanine decarboxylase", "setting": "[6]", "value": "irreversible inactivators"}
    ]},
    {"smiles": "C=C=C(C)C(N)C(=O)O", "note": "(stereo not drawn) [2-amino-3-methylpenta-3,4-dienoic acid]", "values": [
      {"measurement": "activity in vitro against a spectrum of dermatophytes", "setting": "dermatophytes", "value": "active"}
    ]}
  ]
}
